What was measured:
Type in all cases: in vivo, mouse
C57BL/KsJ db/db mice [1] = experiment: Plasma HDL-cholesterol levels of db/db mice; settings: oral twice daily for 25 days, post-absorption conditions, 7.30 hours after last treatment
Procedure: (§1) The C57BL/KsJ db/db mice used in the experiments were supplied by Jackson Lab (via Ch. River). After 10 days of acclimatisation in standard conditions (22±2° C.; 55±15% humidity; 15-20 air changes/hour; 12 hour light-darkness cycle with light from 7 a.m. to 7 p.m.) on a standard 4 RF21 diet (Mucedola), blood samples were taken in post-absorption conditions (fasting from 8.30 a.m. to 4.30 p.m.) from the caudal vein with the aid of a Jelco 22G catheter (Johnson and Johnson). Glucose, insulin, triglyceride, cholesterol, free fatty acid and urea levels were checked in the plasma to ensure well-matched distribution of the mice in the treatment groups.
(§2) The mice were divided into groups and treated orally twice daily with:
(§3) Omega-3 fatty acid (EPA+DHA 1:1) 200 mg/kg;
(§4) Omega-3 fatty acid (200 mg/kg)+simvastatin (100 mg/kg);
(§5) Omega-3 fatty acid (200 mg/kg)+simvastatin (100 mg/kg); Coenzyme Q10 (50 mg/kg)+resveratrol (5 mg/kg)+policosanols (hexacosanol 25 mg/kg)+pantethine (100 mg/kg+selenium (0.5 μg/kg)+zinc (2.5 mg/kg).
(§6) In the course of the experiment, serum glucose levels, glucose tolerance (OGTT), a number of lipid status variables and weight gain were monitored.

C57BL/KsJ db/db mice [2] = experiment: Plasma fructosamine levels of db/db mice; settings: oral twice daily for 25 days, post-absorption condition, 7.30 hours after last treatment
Procedure: as §1, §2, §3, §4, §5, §6

C57BL/KsJ db/db mice [3] = experiment: Oral glucose tolerance test (OGTT) in db/db mice; settings: oral twice daily for 18 days, OGTT glucose 3 g/kg, fasted 18 hours, 5 hours after last treatment
Procedure: (§7) The C57BL/KsJ db/db mice used in the experiments were supplied by Jackson Lab (via Ch. River). […] Glucose, insulin, triglyceride, cholesterol, free fatty acid and urea levels were checked in the plasma to ensure well-matched distribution of the mice in the treatment groups.
as §2, §3, §4, §5, §6

C57BL/KsJ db/db mice [4] = experiment: Plasma triglyceride levels of db/db mice; settings: oral twice daily for 25 days, post-absorption condition, 7.30 hours after last treatment
Procedure: as §7, §2, §3, §4, §5, §6

C57BL/KsJ db/db mice [5] = experiment: Blood glucose levels of db/db mice (antidiabetic activity); settings: for Glucose: mean ± S.E.
Source text: Mutations in laboratory animals have made it possible to develop models that present non-insulin-dependent diabetes associated with obesity, hyperlipidaemia and insulin resistance and that enable us to test the efficacy of new antidiabetic compounds (Reed and Scribner, Diabetes, obesity and metabolism 1: 75-86, 1999).
A much used genetically diabetic mouse model is the C57BL/KsJ db/db mouse.
The genetic basis of this model is a defect in the leptin receptor gene which gives rise to leptin resistance and leads to hyperphagia, obesity, hyperinsulinaemia and insulin resistance, with subsequent symptoms of insufficient insulin secretion and hyperglycaemia (Kodama et al., Diabetologia 37: 739-744, 1994; Chen et al., Cell 84: 491-495, 1996). Since hyperglycaemia is accompanied by obesity and insulin resistance, the db/db mouse has characteristics that are close to those of type 2 diabetes in man and is useful for assaying insulin-sensitising compounds.
as §1
At the start of treatment, the body weight of the animals was checked and monitoring of the animals' consumption of water and feed was scheduled.
as §2, §3, §4, §5, §6

[6] = oral twice daily for 12 days, feeding condition, approx. 15 hours after last treatment
[7] = oral twice daily for 18 days, fasted for 18 hours, 5 hours after last treatment

CCC(C)(C)C(=O)O[C@H]1C[C@@H](C)C=C2C=C[C@H](C)[C@H](CC[C@@H]3C[C@@H](O)CC(=O)O3)[C@H]21 [Simvastatin]
% Variation (HDL-cholesterol) vs control (C57BL/KsJ db/db mice [1]): −11.7% | HDL-cholesterol (C57BL/KsJ db/db mice [1]; mean ± S.E.): 72.4 ± 4.6 mg/dL | % Variation (fructosamine) vs control (C57BL/KsJ db/db mice [2]): −2.5% | Fructosamine (C57BL/KsJ db/db mice [2]; mean ± S.E.): 0.78 ± 0.12 mM | % Variation (AUC glucose, OGTT) vs control (C57BL/KsJ db/db mice [3]): −5.9% | AUC Glucose (OGTT) (C57BL/KsJ db/db mice [3]; mean ± S.E.): 48174 ± 3555 u.a. | Variation (triglycerides) vs control (C57BL/KsJ db/db mice [4]): −16.5% | Triglycerides (C57BL/KsJ db/db mice [4]; mean ± S.E.): 79.7 ± 5.1 mg/dL | % Variation (glucose) vs control (C57BL/KsJ db/db mice [5]; [6]): −7.6% | Glucose (C57BL/KsJ db/db mice [5]; [6]): 450 ± 21 mg/dL | Glucose (C57BL/KsJ db/db mice [5]; oral twice daily for 12 days, post-absorption condition (fasting 9 a.m. to 5 p.m.), 8 hours after last treatment): 419 ± 33 mg/dL | % Variation (glucose) vs control (C57BL/KsJ db/db mice [5]; oral twice daily for 12 days, post-absorption condition, 8 hours after last treatment): 1.2% | % Variation (glucose) vs control (C57BL/KsJ db/db mice [5]; [7]): −5.5% | Glucose (C57BL/KsJ db/db mice [5]; [7]): 325 ± 27 mg/dL

Reference: US8853229B2, “Composition containing statins and omega-3 fatty acids” (Sigma-Tau Industrie Farmaceutiche Riunite S.p.A., priority 2004, dated 2014)
